In US8178688B2, “Benzamidine derivatives, process for the preparation thereof and pharmaceutical composition comprising the same” (Dong Wha Pharmaceutical Co., Ltd., priority 2004, dated 2012):

Each compound was assayed on osteoclast differentiation (assay: Inhibitory effects on osteoclast differentiation (co-culture of bone marrow cells with osteoblast, TRAP staining)). Conditions: Mus musculus, Osteoclast, 168 h, read-out: % inhibitory activity on osteoclastogenesis.
Assay type: cell-based, mice
Experimental: The effect of benzamidine derivatives of the present invention on osteoclast proliferation and differentiation process was evaluated via co-culture with osteoblast.
Tibia and Femora were aseptically ectomized from male ddY mice of 6-8 weeks to harvest bone marrow cells by using a syringe (21G, Korea Green Cross).
The bone marrow cells were suspended in 5 mL α-MEM medium (Gibco BRL Co.) containing sodium bicarbonate (2.0 g/L), streptomycin (100 mg/L) and penicillin ([…]). The harvested cells were centrifuged at 600×g for 5 mins to collect the whole quantity. To remove the red blood cells within bone marrow cells, 3 mL of Tris HCl (0.83% NH4Cl, pH7.5) was added and well mixed. After centrifuging above cells, the numbers of bone marrow cells were counted and then, the bone marrow cells were immediately used for co-culture system with osteoblast.
The calvaria were aseptically ectomized from neonate ICR mice of 1˜2 days, washed with PBS solution and incubated with a mixture of enzyme solution (0.2% collagenase and 0.1% dispase) at 37° C. gentle shaker. This procedure was sequentially repeated (10, 10, 10, 20, 20 and 20 mins), and then the calvaria cells having the characteristics of osteoblast mostly released from III-VI digestion groups were collected and washed with the medium (serum-free α-MEM). The washed cells were cultivated in α-MEM medium containing 10% FBS for 2˜3 days. After subculturing, these cells were used for this experiment, and diluted to reach the concentration of 1×10^6 cell/mL for storage at −70° C.
Benzamidine derivatives of the present invention were dissolved in a sterile distilled water or ethanol to make desired concentrations following dilution. The final volume of specimen added to the medium was determined at the ratio of 1:1000.
Bone marrow cells prepared, in the above and osteoblast from calvaria were co-cultured for osteoclast differentiation. Both bone marrow cells (25,000 cells/cm^2) and osteoblast (10,000 cells/cm^2) were plated on a 96 well plate in α-MEM medium containing FBS with specimen, and then cultured with test materials for 7 days. Differentiation factors, such as dexamethasone (10^−7M) and vitamin D3 (10^−8M), were also continuously added to the medium from the first day of cultivation. The medium was changed with fresh media containing a mixture of specimens and differentiation factors every 2˜3 day.
TRAP was used as a marker to measure osteoclast in consideration of its characteristics showing a positive reaction to TRAP staining solution. TRAP staining solution was prepared in a manner that 5 mg of naphtol AS-MS phosphate (sigma N-4875), a substrate and 25 mg of coloring agent (Fast Red Violet LB salt) were dissolved in N,N-dimethylformamide (about 0.5 mL), 0.1N NaHCO3 buffer solution (50 mL) containing 50 mM tartaric acid was added, and the reaction mixture was stored at refrigerator prior to use.
After culturing the cells for 7 days, the medium was removed from the wells, the cells were once washed with PBS solution and fixed to PBS containing 10% formalin for 2˜5 mins. The cells were fixed again in a mixed solution of ethanol and acetone (1/1) for about 1 min, and dried off. The cells were further treated by TRAP staining solution for 15 mins and washed with PBS. The experimental results were measured by counting the number of osteoclasts with 3 or more nuclei showing TRAP-positive reaction under a microscopic examination. Each of tests was confirmed over three times for gaining more reliable data.
As shown in the following table 7, the inhibitory effect of each experimental group on the differentiation of osteoclast versus controls was expressed by inhibitory percentage value.

Q: `CCCN1CCC(c2nc(-c3ccc(OCCCCCOc4ccc(C(=N)NO)cc4)cc3)c(C)s2)CC1` [Example 72, N-hydroxy-4-(5-[4-(5-methyl-2-(1-propyl-piperidin-4-yl)-1,3-thiazol-4-yl)phenoxy]pentoxy)-benzamidine] was tested. Which inhibition at 1 µM did it give?
A: 67.9%

Q: Which inhibition at 1 µM does the source give for `CC(C)c1sc(C2CCCNC2)nc1-c1ccc(OCCCCCOc2ccc(C(=N)NO)cc2)cc1` (stereo not drawn) [Example 83, N-hydroxy-4-(5-[4-(5-isopropyl-2-(piperidin-3-yl)-1,3-thiazol-4-yl)phenoxy]pentoxy)-benzamidine] here?
A: 23.8%

Same assay, conditions: Mus musculus, Osteoclast, 168 h; 1 m; co-culture of bone marrow cells and osteoblast, 7 days, TRAP-positive osteoclasts versus controls; read-out: % inhibitory activity on osteoclastogenesis

Q: For `CC(C)c1sc(CN2CCOCC2)nc1-c1ccc(OCCCCCOc2ccc(C(=N)NO)cc2)cc1` [Example 70, N-hydroxy-4-(5-[4-(5-isopropyl-2-morpholinomethyl-1,3-thiazol-4-yl)phenoxy]pentoxy)-benzamidine], which inhibition at 1 µM is on record?
A: 32.7%

Q: With `CC(C)c1sc(CN)nc1-c1ccc(OCCCCCOc2ccc(C(=N)NO)cc2)cc1` [Example 73, N-hydroxy-4-(5-[4-(5-isopropyl-2-aminomethyl-1,3-thiazol-4-yl)phenoxy]pentoxy)-benzamidine] as the compound, how does the inhibition at 1 µM read?
A: 54.2%

Q: How did the inhibition at 1 µM turn out when `C=Cc1sc(C)nc1-c1ccc(OCCCCCOc2ccc(C(=N)NO)cc2)cc1` [Example 74, N-hydroxy-4-(5-[4-(5-vinyl-2-methyl-1,3-thiazol-4-yl)phenoxy]pentoxy)-benzamidine] was run?
A: 92.6%

Q: For `Cc1nc(-c2ccc(OCCCCCOc3ccc(C(=N)NO)cc3)cc2)c(CO)s1` [Example 75, N-hydroxy-4-(5-[4-(5-hydroxymethyl-2-methyl-1,3-thiazol-4-yl)phenoxy]pentoxy)-benzamidine], which inhibition at 1 µM is on record?
A: 40.2%

Q: Which inhibition at 1 µM does the source give for `COCc1sc(C)nc1-c1ccc(OCCCCCOc2ccc(C(=N)NO)cc2)cc1` [Example 76, N-hydroxy-4-(5-[4-(5-methoxymethyl-2-methyl-1,3-thiazol-4-yl)phenoxy]pentoxy)-benzamidine] here?
A: 99%

Q: For `N=C(NO)c1ccc(OCCCCCOc2ccc(-c3nc(N)sc3CCCl)cc2)cc1` [Example 77, N-hydroxy-4-(5-[4-(5-(2-chloroethyl)-2-amino-1,3-thiazol-4-yl)phenoxy]pentoxy)-benzamidine], which inhibition at 1 µM is on record?
A: 83.3%

Q: With `C=Cc1sc(N)nc1-c1ccc(OCCCCCOc2ccc(C(=N)NO)cc2)cc1` [Example 78, N-hydroxy-4-(5-[4-(5-vinyl-2-amino-1,3-thiazol-4-yl)phenoxy]pentoxy)-benzamidine] as the compound, how does the inhibition at 1 µM read?
A: 97.5%

Q: `C=Cc1sc(-c2cccnc2)nc1-c1ccc(OCCCCCOc2ccc(C(=N)NO)cc2)cc1` [Example 79, N-hydroxy-4-(5-[4-(5-vinyl-2-(pyridin-3-yl)-1,3-thiazol-4-yl)phenoxy]pentoxy)-benzamidine] was tested. Which inhibition at 1 µM did it give?
A: 96.4%

Q: `N=C(NO)c1ccc(OCCCCCOc2ccc(-c3nc(-c4cccnc4)sc3CCCl)cc2)cc1` [Example 80, N-hydroxy-4-(5-[4-(5-(2-chloroethyl)-2-(pyridin-3-yl)-1,3-thiazol-4-yl)phenoxy]pentoxy)-benzamidine] was tested. Which inhibition at 1 µM did it give?
A: 96.4%

Q: Which inhibition at 1 µM does the source give for `N=C(NO)c1ccc(OCCCCCOc2ccc(-c3nc(N)sc3C3CCCC3)cc2)cc1` [Example 81, N-hydroxy-4-(5-[4-(2-amino-5-cyclopentyl-1,3-thiazol-4-yl)phenoxy]pentoxy)-benzamidine] here?
A: 29.5%

Q: `CCc1sc(CN)nc1-c1ccc(OCCCCCOc2ccc(C(=N)NO)cc2)cc1` [Example 82, N-hydroxy-4-(5-[4-(5-ethyl-2-aminomethyl-1,3-thiazol-4-yl)phenoxy]pentoxy)-benzamidine] was tested. Which inhibition at 1 µM did it give?
A: 8.9%

Q: How did the inhibition at 1 µM turn out when `CCNc1nc(-c2ccc(OCCCCCOc3ccc(C(=N)NO)cc3)cc2)cs1` [Example 84, N-hydroxy-4-(5-[4-(2-ethylamino-1,3-thiazol-4-yl)phenoxy]pentoxy)-benzamidine] was run?
A: 100%

Q: Which inhibition at 1 µM does the source give for `CCS(=O)(=O)Nc1nc(-c2ccc(OCCCCCOc3ccc(C(=N)NO)cc3)cc2)cs1` [Example 85, N-hydroxy-4-(5-[4-(2-ethanesulfonylamino-1,3-thiazol-4-yl)phenoxy]pentoxy)-benzamidine] here?
A: 5.3%

Q: Which inhibition at 1 µM does the source give for `N=C(NO)c1ccc(OCCCCCOc2ccc(-c3nc(NC(=O)c4cccnc4)sc3CC3CCCC3)cc2)cc1` [Example 89, N-hydroxy-4-(5-[4-(5-cyclopentylmethyl-2-(3-pyridylcarbonyl)amino-1,3-thiazol-4-yl)phenoxy]pentoxy)-benzamidine] here?
A: 81.2%

Q: With `Cc1sc(NC(=O)CO)nc1-c1ccc(OCCCCCOc2ccc(C(=N)NO)cc2)cc1` [Example 90, N-hydroxy-4-(5-[4-(2-hydroxyacetylamino-5-methyl-1,3-thiazol-4-yl)phenoxy]pentoxy)-benzamidine] as the compound, how does the inhibition at 1 µM read?
A: 61.9%

Q: `Cc1sc(NC(=O)c2cccnc2)nc1-c1ccc(OCCCCCOc2ccc(C(=N)NO)cc2)cc1` [Example 92, N-hydroxy-4-(5-[4-(5-methyl-2-(3-pyridylcarbonyl)amino-1,3-thiazol-4-yl)phenoxy]pentoxy)-benzamidine] was tested. Which inhibition at 1 µM did it give?
A: 49%

Q: Which inhibition at 1 µM does the source give for `COCCNc1nc(-c2ccc(OCCCCCOc3ccc(C(=N)NO)cc3)cc2)c(C)s1` [Example 94, N-hydroxy-4-(5-(4-(2-(2-methoxyethyl)amino-5-methyl-1,3-thiazol-4-yl)phenoxy]pentoxy)-benzamidine] here?
A: 77.2%

Q: `CCc1sc(NS(=O)(=O)CC)nc1-c1ccc(OCCCCCOc2ccc(C(=N)NO)cc2)cc1` [Example 95, N-hydroxy-4-(5-[4-(2-ethanesulfonylamino-5-ethyl-1,3-thiazol-4-yl)phenoxy]pentoxy)-benzamidine] was tested. Which inhibition at 1 µM did it give?
A: 47.1%

Q: How did the inhibition at 1 µM turn out when `CCNc1nc(-c2ccc(OCCCCCOc3ccc(C(=N)NO)cc3)cc2)c(CC)s1` [Example 97, N-hydroxy-4-(5-[4-(5-ethyl-2-ethylamino-1,3-thiazol-4-yl)phenoxy]pentoxy)-benzamidine] was run?
A: 42.6%

Q: For `CCc1sc(NC(=O)c2cccnc2)nc1-c1ccc(OCCCCCOc2ccc(C(=N)NO)cc2)cc1` [Example 101, N-hydroxy-4-(5-[4-(5-ethyl-2-(3-pyridylcarbonyl)amino-1,3-thiazol-4-yl)phenoxy]pentoxy)-benzamidine], which inhibition at 1 µM is on record?
A: 43.7%

Q: With `CCc1sc(NCCOC)nc1-c1ccc(OCCCCCOc2ccc(C(=N)NO)cc2)cc1` [Example 102, N-hydroxy-4-(5-[4-(5-ethyl-2-(2-methoxyethyl)amino-1,3-thiazol-4-yl)phenoxy]pentoxy)-benzamidine] as the compound, how does the inhibition at 1 µM read?
A: 96.4%

Q: How did the inhibition at 1 µM turn out when `CNc1nc(-c2ccc(OCCCCCOc3ccc(C(=N)NO)cc3)cc2)c(C(C)C)s1` [Example 103, N-hydroxy-4-(5-[4-(5-isopropyl-2-methylamino-1,3-thiazol-4-yl)phenoxy]pentoxy)-benzamidine] was run?
A: 25.4%

Q: `CCNc1nc(-c2ccc(OCCCCCOc3ccc(C(=N)NO)cc3)cc2)c(C(C)C)s1` [Example 104, N-hydroxy-4-(5-[4-(2-ethylamino-5-isopropyl-1,3-thiazol-4-yl)phenoxy]pentoxy)-benzamidine] was tested. Which inhibition at 1 µM did it give?
A: 40%

Q: With `CCCCc1sc(NC)nc1-c1ccc(OCCCCCOc2ccc(C(=N)NO)cc2)cc1` [Example 105, N-hydroxy-4-(5-[4-(5-butyl-2-methylamino-1,3-thiazol-4-yl)phenoxy]pentoxy)-benzamidine] as the compound, how does the inhibition at 1 µM read?
A: 61.1%

Q: How did the inhibition at 1 µM turn out when `CCCCc1sc(NCC)nc1-c1ccc(OCCCCCOc2ccc(C(=N)NO)cc2)cc1` [Example 106, N-hydroxy-4-(5-[4-(5-butyl-2-ethylamino-1,3-thiazol-4-yl)phenoxy]pentoxy)-benzamidine] was run?
A: 0%
